Data taken from patent US10206399B2, “Herbicidal composition comprising uracil compound as active ingredient” (Dongbu Farm Hannong Co., Ltd., priority 2012, dated 2019).
Where two headings read alike, the source gives them in different places.

How the values were obtained:
[1] = test system: Monochoria vaginalis; assay: Paddy field farming herbicidal composition test, plant mortality; type: in vivo
Text: (§1) X is % damage by uracil compound (a) of formula 1 at the rate of application of p kg/ha; Y is % damage by conventional herbicidal compound (b) at the rate of application of q kg/ha; and E is the expected damage caused by compounds (a) and (b) at a rate of application of p and q kg/ha.
(§2) The expected activity for a given combination of two herbicides can be calculated using equation 1 above.

[2] = test system: Ludwigia prostrate; assay: as above; type: in vivo
Text: as §1, §2

[3] = test system: rice plant; assay: Paddy field farming herbicidal composition test, plant mortality (crop)
Text: as §1, §2

[4] = test system: Alopecurus aequalis; assay: Dry field farming herbicidal composition test, plant mortality; type: in vivo; conditions: in % (unit assumed)
Text: as §1, §2

[5] = test system: Porippa islandica; assay: as above; type: in vivo
Text: as §1, §2

[6] = test system: Capsella bursapastoris; assay: as above; type: in vivo; conditions: in % (unit assumed)
Text: as §1, §2

[7] = test system: Lamium amplexicaule; assay: as above; type: in vivo; conditions: in % (unit assumed)
Text: as §1, §2

[8] = test system: Echinochloa crus; assay: as above; type: in vivo
Text: as §1, §2

[9] = test system: Digitaria sanguinalis; assay: as above; type: in vivo
Text: as §1, §2

[10] = test system: Abutilon theophrasti; assay: as above; type: in vivo
Text: as §1, §2

[11] = test system: Aeschynomene indica; assay: as above; type: in vivo
Text: as §1, §2

[12] = test system: corn
[13] = test system: wheat; assay: Dry field farming herbicidal composition test, plant mortality (crop)
Text: as §1, §2

[14] = Echinochloa, read-out: Echinochloa crus mortality, measured value
[15] = Digitaria sanguinalis, read-out: Digitaria sanguinalis mortality, measured value
[16] = Abutilon theophrasti, read-out: Abutilon theophrasti mortality, measured value
[17] = Aeschynomene indica, read-out: Aeschynomene indica mortality, measured value
[18] = Pontederia vaginalis, read-out: Monochoria vaginalis mortality (measured value)

## COc1cc(OC)nc(NC(=O)NS(=O)(=O)Cc2ccccc2C(=O)O)n1 [Bensulfuron]
[1]; 10 g/ha
  Monochoria vaginalis mortality (measured value): 15
[1]; 20 g/ha
  Monochoria vaginalis mortality (measured value): 35
[1]; 40 g/ha
  Monochoria vaginalis mortality (measured value): 51
[2]; 10 g/ha
  Ludwigia prostrate mortality (measured value): 20%
[2]; 20 g/ha
  Ludwigia prostrate mortality (measured value): 40%
[2]; 40 g/ha
  Ludwigia prostrate mortality (measured value): 55%
[3]; 10 g/ha
  Rice plant mortality (measured value): 0
[3]; 20 g/ha
  Rice plant mortality (measured value): 0
[3]; 40 g/ha
  Rice plant mortality (measured value): 1

## Cc1nn(-c2cc(CC(Cl)C(=O)O)c(Cl)cc2F)c(=O)n1C(F)F (stereo not shown) [Carfentrazone]
[4]; 1 g/ha
  Alopecurus aequalis mortality, measured value: 0
[4]; 2 g/ha
  Alopecurus aequalis mortality, measured value: 0
[4]; 4 g/ha
  Alopecurus aequalis mortality, measured value: 0
[5]; 1 g/ha
  Porippa islandica mortality, measured value: 5
[5]; 2 g/ha
  Porippa islandica mortality, measured value: 15
[5]; 4 g/ha
  Porippa islandica mortality, measured value: 40
[6]; 1 g/ha
  Capsella bursapastoris mortality, measured value: 0
[6]; 2 g/ha
  Capsella bursapastoris mortality, measured value: 15
[6]; 4 g/ha
  Capsella bursapastoris mortality, measured value: 35
[7]; 1 g/ha
  Lamium amplexicaule mortality, measured value: 5
[7]; 2 g/ha
  Lamium amplexicaule mortality, measured value: 20
[7]; 4 g/ha
  Lamium amplexicaule mortality, measured value: 40
[8]; 1 g/ha
  Echinochloa crus mortality, measured value: 0
[8]; 2 g/ha
  Echinochloa crus mortality, measured value: 0
[8]; 4 g/ha
  Echinochloa crus mortality, measured value: 0
[8]; [14]
  pest or weed control at 5 g/ha: 0%
  pest or weed control at 10 g/ha: 5%
[9]; 1 g/ha
  Digitaria sanguinalis mortality, measured value: 0
[9]; 2 g/ha
  Digitaria sanguinalis mortality, measured value: 0
[9]; 4 g/ha
  Digitaria sanguinalis mortality, measured value: 0
[9]; [15]
  pest or weed control at 5 g/ha: 0%
  pest or weed control at 10 g/ha: 5%
[10]; 1 g/ha
  Abutilon theophrasti mortality, measured value: 10
[10]; 2 g/ha
  Abutilon theophrasti mortality, measured value: 25
[10]; 4 g/ha
  Abutilon theophrasti mortality, measured value: 45
[10]; [16]
  pest or weed control at 5 g/ha: 50%
  pest or weed control at 10 g/ha: 75%
[11]; 1 g/ha
  Aeschynomene indica mortality, measured value: 5
[11]; 2 g/ha
  Aeschynomene indica mortality, measured value: 20
[11]; 4 g/ha
  Aeschynomene indica mortality, measured value: 40
[11]; [17]
  pest or weed control at 5 g/ha: 45%
  pest or weed control at 10 g/ha: 70%
[1]; [18]
  pest or weed control at 5 g/ha: 20%
  pest or weed control at 10 g/ha: 45%
[2]; 5 g/ha
  Ludwigia prostrate mortality (measured value): 35%
[2]; 10 g/ha
  Ludwigia prostrate mortality (measured value): 50%
[12]; 1 g/ha
  Corn mortality (measured value): 0
[12]; 2 g/ha
  Corn mortality (measured value): 0
[12]; 4 g/ha
  Corn mortality (measured value): 0
[12]; 5 g/ha
  Corn mortality, measured value: 0
[12]; 10 g/ha
  Corn mortality, measured value: 1
[13]; 1 g/ha
  Wheat mortality, measured value: 0
[13]; 2 g/ha
  Wheat mortality, measured value: 0
[13]; 4 g/ha
  Wheat mortality, measured value: 0
[3]; 5 g/ha
  Rice plant mortality (measured value): 0
[3]; 10 g/ha
  Rice plant mortality (measured value): 0

## COc1nc(C)nc(=NC(=O)NS(=O)(=O)c2ccccc2C(=O)O)[nH]1 [Metsulfuron]
[4]; 1 g/ha
  Alopecurus aequalis mortality, measured value: 0
[4]; 2 g/ha
  Alopecurus aequalis mortality, measured value: 0
[4]; 4 g/ha
  Alopecurus aequalis mortality, measured value: 0
[5]; 1 g/ha
  Porippa islandica mortality, measured value: 5
[5]; 2 g/ha
  Porippa islandica mortality, measured value: 20
[5]; 4 g/ha
  Porippa islandica mortality, measured value: 45
[6]; 1 g/ha
  Capsella bursapastoris mortality, measured value: 7
[6]; 2 g/ha
  Capsella bursapastoris mortality, measured value: 24
[6]; 4 g/ha
  Capsella bursapastoris mortality, measured value: 48
[7]; 1 g/ha
  Lamium amplexicaule mortality, measured value: 11
[7]; 2 g/ha
  Lamium amplexicaule mortality, measured value: 29
[7]; 4 g/ha
  Lamium amplexicaule mortality, measured value: 57
[13]; 1 g/ha
  Wheat mortality, measured value: 0
[13]; 2 g/ha
  Wheat mortality, measured value: 0
[13]; 4 g/ha
  Wheat mortality, measured value: 0

## COc1cc(OC)nc(NC(=O)NS(=O)(=O)c2c(C(=O)O)cnn2C)n1 [Pyrazosulfuron]
[1]; 2 g/ha
  Monochoria vaginalis mortality (measured value): 20
[1]; 4 g/ha
  Monochoria vaginalis mortality (measured value): 40
[1]; 5 g/ha
  Monochoria vaginalis mortality (measured value): 40
[1]; 8 g/ha
  Monochoria vaginalis mortality (measured value): 63
[1]; 10 g/ha
  Monochoria vaginalis mortality (measured value): 67
[2]; 2 g/ha
  Ludwigia prostrate mortality (measured value): 15%
[2]; 4 g/ha
  Ludwigia prostrate mortality (measured value): 35%
[2]; 5 g/ha
  Ludwigia prostrate mortality (measured value): 45%
[2]; 8 g/ha
  Ludwigia prostrate mortality (measured value): 65%
[2]; 10 g/ha
  Ludwigia prostrate mortality (measured value): 62%
[3]; 2 g/ha
  Rice plant mortality (measured value): 0
[3]; 4 g/ha
  Rice plant mortality (measured value): 0
[3]; 5 g/ha
  Rice plant mortality (measured value): 0
[3]; 8 g/ha
  Rice plant mortality (measured value): 1
[3]; 10 g/ha
  Rice plant mortality (measured value): 1
